# Assay results as given in ChEMBL document CHEMBL5038628, “Discovery of spiro amide SHR902275: A potent, selective, and efficacious RAF inhibitor targeting RAS mutant cancers” (Eur J Med Chem, 2022).
# Active and inactive are the calls of the source. The calls are words filed in the database; no cut-off is given here.
# What was measured:
# [1] = Cmax in Sprague-Dawley rat assessed as parent compound at 24 mg/kg, IG by LC-MS/MS analysis; assay type: ADME, organism-based, Plasma; design: route […], dose 24 mg/kg; settings: in vivo, po
# [2] = Cmax in Sprague-Dawley rat plasma assessed as parent compound at 121 mg/kg, IG by LC-MS/MS analysis; assay type: ADME, organism-based; design: route […], dose 121 mg/kg; settings: in vivo, po
# [3] = AUC (0-t) in Sprague-Dawley rat plasma assessed as parent compound at 121 mg/kg, IG by LC-MS/MS analysis; assay type: ADME, organism-based; design: dose 121 mg/kg; settings: in vivo, po
# [4] = molecular target: RAF proto-oncogene serine/threonine-protein kinase (Homo sapiens, UniProt P04049); test: Inhibition of human recombinant cRAF measured after 60 mins by TR-FRET assay
# NCI-H358 = test: Cytotoxicity against human NCI-H358 cells assessed as inhibition of growth measured after 72 hrs by CellTiter-Glo luciferase assay; assay type: functional
# [5] = Cmax in Sprague-Dawley rat plasma at 2 mg/kg, IG by LC-MS/MS analysis; assay type: ADME, organism-based; design: route […], dose 2 mg/kg; settings: po
# [6] = Half life in Sprague-Dawley rat plasma at 1 mg/kg, iv by LC-MS/MS analysis; assay type: ADME, organism-based; settings: Sprague-Dawley, plasma
# [7] = Clearance in Sprague-Dawley rat plasma at 1 mg/kg, iv by LC-MS/MS analysis; assay type: ADME, organism-based
# [8] = AUC (0 to t) in Sprague-Dawley rat plasma at 2 mg/kg, IG by LC-MS/MS analysis; assay type: ADME, organism-based; design: dose 2 mg/kg; settings: po
# [9] = Oral bioavailability in Sprague-Dawley rat by LC-MS/MS analysis; assay type: ADME, organism-based; settings: in vivo
# [10] = molecular target: Serine/threonine-protein kinase B-raf (Homo sapiens, UniProt P15056); test: Inhibition of human recombinant wild type BRAF measured after 60 mins by TR-FRET assay
# [11] = molecular target: Serine/threonine-protein kinase B-raf (Homo sapiens, UniProt P15056, V600E); test: Inhibition of human recombinant BRAF V600E mutant measured after 60 mins by TR-FRET assay
# A-375 = test: Cytotoxicity against human A-375 cells assessed as inhibition of growth measured after 72 hrs by CellTiter-Glo luciferase assay; assay type: functional
# Calu-6 [12] = test: Cytotoxicity against human Calu-6 cells assessed as inhibition of growth measured after 72 hrs by CellTiter-Glo luciferase assay; assay type: functional
# SK-MEL-2 = test: Cytotoxicity against human SK-MEL-2 cells assessed as inhibition of growth measured after 72 hrs by CellTiter-Glo luciferase assay; assay type: functional
# [13] = Metabolic stability in human liver microsomes assessed as half life; assay type: ADME, Microsome
# [14] = Metabolic stability in mouse liver microsomes assessed as half life; assay type: ADME, Microsome
# [15] = Metabolic stability in rat liver microsomes assessed as half life; assay type: ADME, Microsome
# [16] = Fraction unbound in human plasma; assay type: ADME, cell-free
# [17] = Fraction unbound in mouse plasma; assay type: ADME, cell-free
# [18] = Fraction unbound in rat plasma; assay type: ADME, cell-free
# [19] = Cmax in Sprague-Dawley rat plasma at 20 mg/kg, IG by LC-MS/MS analysis; assay type: ADME, organism-based; design: route […], dose 20 mg/kg; settings: po
# [20] = AUC (0 to t) in Sprague-Dawley rat plasma at 20 mg/kg, IG by LC-MS/MS analysis; assay type: ADME, organism-based; design: dose 20 mg/kg; settings: po
# Calu-6 [21] = test: Antitumor activity against human Calu-6 cells xenografted in nude mouse assessed as tumor growth inhibition at 5 to 30 mg/kg,IT BID for 14 days relative to control; assay type: functional, organism-based; settings: dose 5-30 mg/kg, time 14.0 day
# [22] = Toxicity in nude mouse assessed as reduction in body weight measured at 5 to 30 mg/kg,IT BID for 14 days; assay type: organism-based; settings: in vivo, other, 336 h, dose 5-30 mg/kg, time 14 day
# [23] = molecular target: T1, Eukaryotic translation initiation factor 2-alpha kinase 3 (Homo sapiens) (UniProt Q9NZJ5); test: Inhibition of human His-tagged PERK by TR-FRET assay
# T1 sequence (whole entry): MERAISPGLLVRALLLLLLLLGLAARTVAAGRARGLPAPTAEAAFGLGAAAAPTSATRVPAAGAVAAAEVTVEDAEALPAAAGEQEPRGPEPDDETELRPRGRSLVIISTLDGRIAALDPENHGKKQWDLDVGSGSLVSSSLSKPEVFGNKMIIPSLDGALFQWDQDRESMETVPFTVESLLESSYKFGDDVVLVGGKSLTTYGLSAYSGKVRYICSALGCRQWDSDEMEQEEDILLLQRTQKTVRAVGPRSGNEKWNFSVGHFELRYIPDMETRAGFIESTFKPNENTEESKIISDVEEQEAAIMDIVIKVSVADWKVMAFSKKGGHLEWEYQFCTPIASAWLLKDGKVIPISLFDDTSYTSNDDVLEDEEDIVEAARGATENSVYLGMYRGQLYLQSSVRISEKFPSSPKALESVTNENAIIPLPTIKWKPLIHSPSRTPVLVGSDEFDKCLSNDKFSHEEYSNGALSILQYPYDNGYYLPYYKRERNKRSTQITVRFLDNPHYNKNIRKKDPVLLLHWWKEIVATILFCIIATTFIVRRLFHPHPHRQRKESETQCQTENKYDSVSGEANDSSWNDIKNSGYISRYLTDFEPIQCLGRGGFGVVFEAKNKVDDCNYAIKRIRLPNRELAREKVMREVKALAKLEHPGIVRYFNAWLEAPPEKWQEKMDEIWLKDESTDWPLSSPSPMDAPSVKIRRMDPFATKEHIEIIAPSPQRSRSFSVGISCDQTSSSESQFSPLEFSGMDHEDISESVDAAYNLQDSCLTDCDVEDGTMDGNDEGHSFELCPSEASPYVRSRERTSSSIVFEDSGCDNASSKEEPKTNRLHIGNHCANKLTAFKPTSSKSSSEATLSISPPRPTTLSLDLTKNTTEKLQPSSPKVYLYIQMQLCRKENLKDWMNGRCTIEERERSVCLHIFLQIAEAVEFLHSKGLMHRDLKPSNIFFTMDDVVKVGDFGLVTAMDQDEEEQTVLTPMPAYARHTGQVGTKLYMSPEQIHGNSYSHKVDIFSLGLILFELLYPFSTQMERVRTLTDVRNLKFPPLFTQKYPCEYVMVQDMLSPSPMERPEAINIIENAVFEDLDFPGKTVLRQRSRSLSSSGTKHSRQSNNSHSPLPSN
# [24] = Cmax in C57 mouse at 2 mg/kg, IG; assay type: ADME, organism-based; design: route […], dose 2 mg/kg; settings: in vivo, po
# [25] = Half life in C57 mouse at 1 mg/kg, iv; assay type: ADME, organism-based; settings: in vivo
# [26] = Clearance in C57 mouse at 1 mg/kg, iv; assay type: ADME, organism-based; settings: in vivo
# [27] = AUC (0 to t) in C57 mouse at 2 mg/kg, IG; assay type: ADME, organism-based; design: dose 2 mg/kg; settings: in vivo, po
# [28] = Oral bioavailability in C57 mouse; assay type: ADME, organism-based; settings: in vivo
# [29] = Solubility of the compound at pH 7.4; settings: buffer
# [30] = Apparent permeability across apical to basolateral membrane in human Caco-2 cells
# [31] = Apparent permeability across basolateral to apical membrane in human Caco-2 cells
# P-gp (ABCB1) = P-gp (ABCB1) (Homo sapiens, UniProt P08183); test: Substrate activity at P-gp in human Caco-2 cells assessed as efflux ratio of permeability
# Cytochrome P450 1A2 = molecular target: T2, Cytochrome P450 1A2 (Homo sapiens, UniProt P05177); test: Inhibition of CYP1A2 (unknown origin)
# T2 sequence (P05177 whole entry): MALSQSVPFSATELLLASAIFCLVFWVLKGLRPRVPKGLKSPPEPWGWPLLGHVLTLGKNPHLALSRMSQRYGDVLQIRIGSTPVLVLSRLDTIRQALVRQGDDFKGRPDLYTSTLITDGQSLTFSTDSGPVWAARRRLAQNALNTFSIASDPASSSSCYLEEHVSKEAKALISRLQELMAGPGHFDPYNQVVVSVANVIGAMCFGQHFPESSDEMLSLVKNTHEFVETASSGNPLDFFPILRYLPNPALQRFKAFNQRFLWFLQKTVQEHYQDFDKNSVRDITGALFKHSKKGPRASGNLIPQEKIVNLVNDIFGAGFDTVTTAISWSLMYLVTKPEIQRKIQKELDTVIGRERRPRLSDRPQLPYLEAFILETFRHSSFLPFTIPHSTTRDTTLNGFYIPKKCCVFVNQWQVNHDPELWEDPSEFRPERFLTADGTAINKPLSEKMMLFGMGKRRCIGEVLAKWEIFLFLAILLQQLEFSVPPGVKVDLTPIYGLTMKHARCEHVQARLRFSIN
# Cytochrome P450 2C9 = Cytochrome P450 2C9 (Homo sapiens, UniProt P11712); test: Inhibition of CYP2C9 (unknown origin)
# Cytochrome P450 2C19 = Cytochrome P450 2C19 (Homo sapiens, UniProt P33261); test: Inhibition of CYP2C19 (unknown origin)
# Cytochrome P450 2D6 = Cytochrome P450 2D6 (Homo sapiens, UniProt P10635); test: Inhibition of CYP2D6 (unknown origin)
# Cytochrome P450 3A4 [32] = molecular target: T3, Cytochrome P450 3A4 (Homo sapiens, UniProt P08684); test: Inhibition of CYP3A4 (unknown origin) using midazolam as substrate
# Cytochrome P450 3A4 [33] = molecular target: T3, Cytochrome P450 3A4; test: Inhibition of CYP3A4 (unknown origin) using testosterone as substrate
# Calu-6 [34] = test: Antitumor activity against human Calu-6 cells xenografted in nude mouse assessed as tumor growth inhibition at 30 mg/kg,IT QD for 12 days relative to control; assay type: functional; settings: Calu-6, 288 h, time 12 day, read-out: TGI
# [35] = molecular target: Voltage-gated inwardly rectifying potassium channel KCNH2 (Homo sapiens, UniProt Q12809)
# Chain of Voltage-gated inwardly rectifying potassium channel KCNH2 (Q12809 whole entry): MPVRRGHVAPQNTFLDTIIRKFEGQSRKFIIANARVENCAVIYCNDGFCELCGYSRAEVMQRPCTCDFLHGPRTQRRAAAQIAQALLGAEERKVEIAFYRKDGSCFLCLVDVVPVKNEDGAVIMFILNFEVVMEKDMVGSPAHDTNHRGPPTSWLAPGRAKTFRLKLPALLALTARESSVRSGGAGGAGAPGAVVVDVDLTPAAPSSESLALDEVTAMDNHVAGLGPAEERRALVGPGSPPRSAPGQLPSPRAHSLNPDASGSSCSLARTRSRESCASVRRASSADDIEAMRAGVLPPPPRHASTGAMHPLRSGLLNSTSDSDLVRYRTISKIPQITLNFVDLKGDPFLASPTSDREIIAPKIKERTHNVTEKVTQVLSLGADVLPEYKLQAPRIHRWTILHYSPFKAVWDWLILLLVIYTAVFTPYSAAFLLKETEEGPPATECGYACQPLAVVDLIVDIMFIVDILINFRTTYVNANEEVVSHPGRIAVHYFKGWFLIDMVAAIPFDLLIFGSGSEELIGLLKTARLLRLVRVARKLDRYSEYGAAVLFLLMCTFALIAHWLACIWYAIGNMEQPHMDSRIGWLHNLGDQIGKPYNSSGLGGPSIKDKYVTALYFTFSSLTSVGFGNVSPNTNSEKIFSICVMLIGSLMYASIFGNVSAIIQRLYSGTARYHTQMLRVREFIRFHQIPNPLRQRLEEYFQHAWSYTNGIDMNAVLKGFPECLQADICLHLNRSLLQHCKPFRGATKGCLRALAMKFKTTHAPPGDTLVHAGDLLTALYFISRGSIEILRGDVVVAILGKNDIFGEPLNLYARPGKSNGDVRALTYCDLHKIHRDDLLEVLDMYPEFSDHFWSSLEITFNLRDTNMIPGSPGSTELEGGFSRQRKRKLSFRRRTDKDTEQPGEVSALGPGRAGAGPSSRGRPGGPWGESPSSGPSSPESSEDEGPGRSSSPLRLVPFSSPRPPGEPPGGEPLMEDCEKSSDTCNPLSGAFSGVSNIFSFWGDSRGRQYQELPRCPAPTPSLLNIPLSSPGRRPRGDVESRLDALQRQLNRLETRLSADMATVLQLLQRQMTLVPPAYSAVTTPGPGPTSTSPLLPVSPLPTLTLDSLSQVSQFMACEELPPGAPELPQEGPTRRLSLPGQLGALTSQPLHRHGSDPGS
# Chain of RAF proto-oncogene serine/threonine-protein kinase (P04049 whole entry): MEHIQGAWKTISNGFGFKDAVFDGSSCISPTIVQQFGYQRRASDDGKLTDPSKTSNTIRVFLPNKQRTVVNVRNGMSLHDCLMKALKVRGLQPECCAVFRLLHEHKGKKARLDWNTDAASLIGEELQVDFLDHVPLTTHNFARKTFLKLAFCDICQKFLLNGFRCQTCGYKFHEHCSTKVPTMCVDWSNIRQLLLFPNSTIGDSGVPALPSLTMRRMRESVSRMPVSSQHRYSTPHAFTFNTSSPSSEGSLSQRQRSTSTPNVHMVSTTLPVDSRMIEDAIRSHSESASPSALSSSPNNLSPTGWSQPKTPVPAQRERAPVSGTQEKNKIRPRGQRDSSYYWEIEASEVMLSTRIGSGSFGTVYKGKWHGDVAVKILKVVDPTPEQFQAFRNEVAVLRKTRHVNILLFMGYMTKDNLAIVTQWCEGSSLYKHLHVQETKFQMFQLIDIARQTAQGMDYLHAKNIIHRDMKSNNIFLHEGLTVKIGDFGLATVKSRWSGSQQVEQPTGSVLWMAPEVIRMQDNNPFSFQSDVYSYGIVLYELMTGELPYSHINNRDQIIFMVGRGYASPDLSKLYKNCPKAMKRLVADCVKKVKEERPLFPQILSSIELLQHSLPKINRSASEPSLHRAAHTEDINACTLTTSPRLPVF
# Chain of Serine/threonine-protein kinase B-raf (Homo sapiens, UniProt P15056, V600E) (P15056 2-766 V600E limits assumed): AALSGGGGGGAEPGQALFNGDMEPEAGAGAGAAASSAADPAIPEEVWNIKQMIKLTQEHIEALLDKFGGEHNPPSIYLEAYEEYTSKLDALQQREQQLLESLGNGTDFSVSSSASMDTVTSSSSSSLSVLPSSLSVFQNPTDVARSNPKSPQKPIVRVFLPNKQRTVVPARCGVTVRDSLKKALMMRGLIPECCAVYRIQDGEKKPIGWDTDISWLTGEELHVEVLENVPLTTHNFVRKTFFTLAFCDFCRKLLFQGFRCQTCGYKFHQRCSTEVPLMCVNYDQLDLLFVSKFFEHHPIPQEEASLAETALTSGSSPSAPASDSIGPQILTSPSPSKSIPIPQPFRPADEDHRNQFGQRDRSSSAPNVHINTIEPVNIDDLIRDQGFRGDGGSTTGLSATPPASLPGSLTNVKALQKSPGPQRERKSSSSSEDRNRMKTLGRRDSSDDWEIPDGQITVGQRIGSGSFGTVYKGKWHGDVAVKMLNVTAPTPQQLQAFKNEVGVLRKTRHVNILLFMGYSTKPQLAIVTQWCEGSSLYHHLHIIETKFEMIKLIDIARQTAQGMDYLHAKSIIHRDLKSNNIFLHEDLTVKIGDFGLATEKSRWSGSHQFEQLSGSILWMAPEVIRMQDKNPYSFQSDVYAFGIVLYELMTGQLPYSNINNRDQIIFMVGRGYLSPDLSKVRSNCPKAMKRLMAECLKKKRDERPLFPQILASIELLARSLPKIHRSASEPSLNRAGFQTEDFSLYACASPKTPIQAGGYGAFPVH
# Chain of Serine/threonine-protein kinase B-raf (Homo sapiens, UniProt P15056) (P15056 whole entry): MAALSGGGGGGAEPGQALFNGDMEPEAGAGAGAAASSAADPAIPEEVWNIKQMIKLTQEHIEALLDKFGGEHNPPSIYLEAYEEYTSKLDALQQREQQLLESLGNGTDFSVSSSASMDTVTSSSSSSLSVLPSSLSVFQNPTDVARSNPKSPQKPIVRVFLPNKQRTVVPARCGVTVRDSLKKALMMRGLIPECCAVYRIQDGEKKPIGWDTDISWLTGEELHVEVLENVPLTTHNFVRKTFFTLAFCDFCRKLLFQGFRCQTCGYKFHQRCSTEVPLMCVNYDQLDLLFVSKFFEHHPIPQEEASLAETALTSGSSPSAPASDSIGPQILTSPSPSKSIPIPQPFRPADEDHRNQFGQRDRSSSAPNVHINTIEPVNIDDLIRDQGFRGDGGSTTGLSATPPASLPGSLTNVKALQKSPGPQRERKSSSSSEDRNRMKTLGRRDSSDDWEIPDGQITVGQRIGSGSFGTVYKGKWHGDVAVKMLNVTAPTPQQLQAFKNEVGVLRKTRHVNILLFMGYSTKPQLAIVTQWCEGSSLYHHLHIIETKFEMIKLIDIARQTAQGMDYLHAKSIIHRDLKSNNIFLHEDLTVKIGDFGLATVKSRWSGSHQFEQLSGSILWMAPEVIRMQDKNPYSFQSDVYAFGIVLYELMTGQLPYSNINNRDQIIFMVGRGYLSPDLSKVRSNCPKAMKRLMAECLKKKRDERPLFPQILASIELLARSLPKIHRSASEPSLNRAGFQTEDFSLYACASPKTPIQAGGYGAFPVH
# T3 sequence (P08684 whole entry): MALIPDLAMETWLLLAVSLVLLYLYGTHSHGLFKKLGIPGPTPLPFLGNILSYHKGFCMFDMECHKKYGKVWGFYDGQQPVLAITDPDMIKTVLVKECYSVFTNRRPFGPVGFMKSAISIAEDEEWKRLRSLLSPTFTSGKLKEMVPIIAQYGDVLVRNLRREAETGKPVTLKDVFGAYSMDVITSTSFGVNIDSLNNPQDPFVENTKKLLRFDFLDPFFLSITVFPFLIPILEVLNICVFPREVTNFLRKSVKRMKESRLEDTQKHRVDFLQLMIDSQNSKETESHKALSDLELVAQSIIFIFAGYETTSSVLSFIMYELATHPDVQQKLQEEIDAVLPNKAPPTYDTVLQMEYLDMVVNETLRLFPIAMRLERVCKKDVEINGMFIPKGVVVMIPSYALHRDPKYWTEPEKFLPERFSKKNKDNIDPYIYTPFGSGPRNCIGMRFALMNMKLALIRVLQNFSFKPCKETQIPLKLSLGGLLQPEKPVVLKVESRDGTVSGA
# Chain of Cytochrome P450 2C19 (P33261 whole entry): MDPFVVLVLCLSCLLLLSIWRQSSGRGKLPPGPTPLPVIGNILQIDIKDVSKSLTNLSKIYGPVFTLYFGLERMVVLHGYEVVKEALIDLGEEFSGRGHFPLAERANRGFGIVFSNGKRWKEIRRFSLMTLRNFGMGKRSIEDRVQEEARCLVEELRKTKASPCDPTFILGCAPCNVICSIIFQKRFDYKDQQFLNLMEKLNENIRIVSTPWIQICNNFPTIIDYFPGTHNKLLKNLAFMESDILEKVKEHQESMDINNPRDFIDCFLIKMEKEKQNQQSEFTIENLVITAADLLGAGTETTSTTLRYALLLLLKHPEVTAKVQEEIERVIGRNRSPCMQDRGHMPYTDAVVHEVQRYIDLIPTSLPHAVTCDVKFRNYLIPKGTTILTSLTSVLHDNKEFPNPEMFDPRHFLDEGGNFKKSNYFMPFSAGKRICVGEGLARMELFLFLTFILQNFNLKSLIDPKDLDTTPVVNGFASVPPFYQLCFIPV
# Chain of Cytochrome P450 2C9 (P11712 whole entry): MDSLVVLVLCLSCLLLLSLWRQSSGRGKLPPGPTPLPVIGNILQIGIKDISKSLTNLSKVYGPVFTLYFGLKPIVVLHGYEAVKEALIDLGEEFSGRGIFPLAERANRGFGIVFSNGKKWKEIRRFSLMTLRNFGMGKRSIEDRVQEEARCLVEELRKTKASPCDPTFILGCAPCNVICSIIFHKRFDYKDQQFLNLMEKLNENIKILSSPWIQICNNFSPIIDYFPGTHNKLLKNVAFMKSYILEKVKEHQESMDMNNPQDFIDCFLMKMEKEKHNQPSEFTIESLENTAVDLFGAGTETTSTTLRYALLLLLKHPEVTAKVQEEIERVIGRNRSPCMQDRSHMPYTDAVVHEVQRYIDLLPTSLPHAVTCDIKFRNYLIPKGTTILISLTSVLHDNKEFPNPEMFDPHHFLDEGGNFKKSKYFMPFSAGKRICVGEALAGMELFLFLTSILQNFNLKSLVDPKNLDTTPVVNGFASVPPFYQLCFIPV
smiles,measurement,setting,value
Cc1ccc(NC(=O)c2cc(C(F)(F)F)cnn2)cc1-c1ccc2c(c1)OC1(CCOCC1)CC(=O)N2COP(=O)(O)O,Cmax,[1],2848 ng/mL
same,Cmax,[2],10740 ng/mL
same,AUCt,[3],132.78 µg·h/mL
Cc1ccc(NC(=O)c2cc(C(F)(F)F)cnn2)cc1-c1ccc2c(c1)OC1(CCOCC1)CC(=O)N2,IC50,[4],1.6 nM
same,GI50,NCI-H358,1400 nM
same,Cmax,[5],956 ng/mL
same,half-life,[6],96 min
same,clearance,[7],7.2 mL/min/kg
same,AUC(0-t),"[8]; Sprague-Dawley, plasma",4700 ng·h/mL
same,bioavailability,[9]; Sprague-Dawley,101%
same,IC50,[10],10 nM
same,IC50,[11],5.7 nM
same,GI50,A-375,170 nM
same,GI50,Calu-6 [12],400 nM
same,GI50,SK-MEL-2,320 nM
same,half-life,[13],106 min
same,half-life,[14],> 139 min
same,half-life,[15],74.2 min
same,fraction unbound,[16],0.006
same,fraction unbound,[17],0.018
same,fraction unbound,[18],0.06
same,Cmax,[19],2810 ng/mL
same,AUC(0-t),[20],21800 ng·h/mL
same,TGI,Calu-6 [21],Dose-Dependent Effect
same,Activity,[22],Non-Toxic
same,inhibition,[23],Active
same,Cmax,[24],953 ng/mL
same,half-life,[25],216 min
same,clearance,[26],6.8 mL/min/kg
same,AUC(0-t),[27],5410 ng·h/mL
same,bioavailability,[28],112%
Cc1ccc(NC(=O)c2ccnc(C(F)(F)F)c2)cc1-c1ccc2c(c1)OC1(CCOCC1)CC(=O)N2,IC50,[4],5.1 nM
same,GI50,NCI-H358,1700 nM
same,solubility,[29],0.9 µM
same,Cmax,[5],47.3 ng/mL
same,AUCt,[8]; in vivo,3.12 ng·h/mL
same,F,[9],18.7%
same,IC50,[10],12 nM
same,IC50,[11],11 nM
same,GI50,A-375,150 nM
same,GI50,Calu-6 [12],350 nM
same,GI50,SK-MEL-2,230 nM
same,half-life,[13],139 min
same,half-life,[14],> 139 min
same,half-life,[15],44.9 min
same,fraction unbound,[16],0.004
same,fraction unbound,[17],0.012
same,fraction unbound,[18],0.009
same,Papp A→B,[30],15.7 ×10⁻⁶ cm/s
same,Papp B→A,[31],39.8 ×10⁻⁶ cm/s
same,efflux ratio,P-gp (ABCB1),2.53
same,IC50,Cytochrome P450 1A2,> 30 µM
same,IC50,Cytochrome P450 2C9,10.3 µM
same,IC50,Cytochrome P450 2C19,> 30 µM
same,IC50,Cytochrome P450 2D6,> 30 µM
same,IC50,Cytochrome P450 3A4 [32],> 30 µM
same,IC50,Cytochrome P450 3A4 [33],13.2 µM
same,inhibition in vivo at 30 mg/kg,Calu-6 [34],41%
same,IC50,[35],3 µM
